Assay: xn = mol fraction of the nth substance listed

CCCCOCCOCCO + ClC(Cl)(Cl)Cl
298.15 K, 101.33 kPa
Details	viscosity [mPa·s]
x1 = 0.02	0.948
x1 = 0.038	0.989
x1 = 0.0629	1.05
x1 = 0.0892	1.14
x1 = 0.1363	1.29
x1 = 0.18	1.442
x1 = 0.2249	1.63
x1 = 0.2644	1.796
x1 = 0.3052	1.974
x1 = 0.4307	2.594
x1 = 0.4809	2.841
x1 = 0.5267	3.065
x1 = 0.5721	3.292
x1 = 0.6126	3.489
x1 = 0.6679	3.769
x1 = 0.7225	4.032
x1 = 0.7669	4.227
x1 = 0.8132	4.438
x1 = 0.8674	4.688
x1 = 0.9149	4.885
x1 = 0.9436	5.01
x1 = 0.9724	5.074

C1CC[NH2+]C1.CCCCCCCC(=O)[O-] + CO
viscosity [mPa·s], 101 kPa
Details	x1 = 0.1021	x1 = 0.2025	x1 = 0.3023	x1 = 0.3896	x1 = 0.5185	x1 = 0.5972	x1 = 0.7086	x1 = 0.7895	x1 = 0.844
293.15 K	4.58	7.4	10.73	14.46	22.6	28	38.68	47.37	55.2
298.15 K	3.6	6.53	10.37	13.1	19.44	24.57	33.84	41.18	48.18
303.15 K	3.6	6	8.9	10.82	15.84	20.9	27.67	34.45	38.6
308.15 K	4.08	5.69	8.64	10.07	15.33	19.02	24.21	29.56	33.63
313.15 K	4	5.4	7.17	9.15	13.26	15.69	21.37	25.39	28.41

CCCCOCCOCCO + ClCCl
298.15 K, 101.33 kPa
Details	viscosity [mPa·s]
x1 = 0.0047	0.418
x1 = 0.012	0.433
x1 = 0.02	0.448
x1 = 0.0388	0.48
x1 = 0.0685	0.56
x1 = 0.1079	0.649
x1 = 0.1533	0.78
x1 = 0.1882	0.907
x1 = 0.2206	1.028
x1 = 0.2751	1.226
x1 = 0.3166	1.409
x1 = 0.3515	1.576
x1 = 0.397	1.807
x1 = 0.4383	2.028
x1 = 0.4759	2.224
x1 = 0.5118	2.425
x1 = 0.5496	2.627
x1 = 0.6026	2.965
x1 = 0.6535	3.267
x1 = 0.7124	3.628
x1 = 0.7606	3.893
x1 = 0.8051	4.163
x1 = 0.854	4.458
x1 = 0.9019	4.724
x1 = 0.9342	4.893
x1 = 0.9731	5.104

Cc1cccc(C)c1 + CO
293.15 K, 101 kPa
Details	viscosity [mPa·s]
x2 = 0.2	0.622
x2 = 0.4	0.626
x2 = 0.5	0.646
x2 = 0.6	0.662
x2 = 0.7	0.654
x2 = 0.8	0.641

Cc1cccc(C)c1 + C1CCCCC1
101 kPa
Details	viscosity [mPa·s]
303 K, x1 = 0.1017	0.7217
303 K, x1 = 0.2009	0.6601
303 K, x1 = 0.3085	0.6191
303 K, x1 = 0.4005	0.5943
303 K, x1 = 0.503	0.5759
303 K, x1 = 0.5848	0.5648
303 K, x1 = 0.7009	0.552
303 K, x1 = 0.8041	0.5484
303 K, x1 = 0.9025	0.5445
308.15 K, x2 = 0.0628	0.516
308.15 K, x2 = 0.1619	0.5217
308.15 K, x2 = 0.2398	0.522
308.15 K, x2 = 0.3421	0.5304
308.15 K, x2 = 0.4497	0.5417
308.15 K, x2 = 0.5501	0.5626
308.15 K, x2 = 0.6692	0.587
308.15 K, x2 = 0.7673	0.6144
308.15 K, x2 = 0.8649	0.6595
308.15 K, x2 = 0.9489	0.7148
313 K, x1 = 0.1017	0.6251
313 K, x1 = 0.2009	0.5799
313 K, x1 = 0.3085	0.548
313 K, x1 = 0.4005	0.5296
313 K, x1 = 0.503	0.5178
313 K, x1 = 0.5848	0.508
313 K, x1 = 0.7009	0.5009
313 K, x1 = 0.8041	0.493
313 K, x1 = 0.9025	0.492
313.15 K, x2 = 0.0628	0.4892
313.15 K, x2 = 0.1619	0.4949
313.15 K, x2 = 0.2398	0.4963
313.15 K, x2 = 0.3421	0.5022
313.15 K, x2 = 0.4497	0.5152
313.15 K, x2 = 0.5501	0.5304
313.15 K, x2 = 0.6692	0.5548
313.15 K, x2 = 0.7673	0.5837
313.15 K, x2 = 0.8649	0.6213
313.15 K, x2 = 0.9489	0.6685
323 K, x1 = 0.1017	0.5481
323 K, x1 = 0.2009	0.5125
323 K, x1 = 0.3085	0.4884
323 K, x1 = 0.4005	0.4736
323 K, x1 = 0.503	0.4625
323 K, x1 = 0.5848	0.4562
323 K, x1 = 0.7009	0.45
323 K, x1 = 0.8041	0.4466
323 K, x1 = 0.9025	0.4461

Cc1cccc(C)c1 + c1ccccc1
viscosity [mPa·s], 101 kPa
Details	x1 = 0.0977	x1 = 0.2098	x1 = 0.2979	x1 = 0.4028	x1 = 0.5018	x1 = 0.5981	x1 = 0.7046	x1 = 0.8007	x1 = 0.898
303 K	0.5478	0.5424	0.5393	0.5373	0.5342	0.5374	0.536	0.5395	0.5417
313 K	0.4793	0.4781	0.4769	0.4767	0.4789	0.4796	0.4818	0.4843	0.4875
323 K	0.4302	0.4308	0.4285	0.4291	0.4307	0.4342	0.4361	0.4397	0.443

O=S1(=O)CCCC1 + CCCCCO
viscosity [mPa·s], 101 kPa
Details	x1 = 0.1119	x1 = 0.2324	x1 = 0.3323	x1 = 0.4328	x1 = 0.5236	x1 = 0.6267	x1 = 0.7208	x1 = 0.8145	x1 = 0.9043
303.15 K	2.686	2.749	2.951	3.218	3.489	3.956	4.594	5.618	7.273
308.15 K	2.366	2.416	2.578	2.807	3.082	3.491	4.077	4.986	6.441
313.15 K	2.096	2.14	2.278	2.479	2.729	3.111	3.644	4.454	5.735

OC1COCOC1 + OCC(O)CO
viscosity [mPa·s], 101 kPa
Details	x1 = 0.0998	x1 = 0.2002	x1 = 0.3	x1 = 0.3996	x1 = 0.5003	x1 = 0.5984	x1 = 0.7011	x1 = 0.8002	x1 = 0.9
298.15 K	832.9	733.8	627.8	520	421.6	329.6	242.5	168.5	92.07
308.15 K	378.7	330.3	278.4	227	181	134.8	99.8	67.79	40.63
318.15 K	190	163.4	139	110.6	85.95	62.08	44.85	32.54	20.88
